Assay results published in patent US10328092B2, “Methods and compositions for treatment of drug addiction” (The Royal Institution for the Advancement of Learning / …, priority 2015, dated 2019).

Experiments:
TNFα = TNFα mRNA / protein in ventral striatum (NAc) after in vivo treatment; parameters: species or system mouse; conditions: for TNFα mRNA in the ventral striatum: single injection of MPLA 10 μg
Protocol: To determine the effect of in vivo cocaine exposure on TNFα levels in the ventral striatum, TNFα mRNA and protein levels were measured in mice given intraperitoneal injections of saline or cocaine. […] To understand the impact of TNFα on synaptic function in the NAc, AMPA/NMDA ratios were measured at glutamatergic synapses on MSNs in the NAc core. Alteration in NAc core AMPA receptors are involved in the expression of behavioral sensitization to psychostimulants (Kalives, 2009).
Mice (8-10 weeks) were perfused and their brains submerged overnight in 4% PFA, cryoprotected with 30% sucrose, and cut in 30 μm thick coronal slices using a cryostat. The sections were incubated for 4 hours with blocking solution (2% normal goat serum, 3% BSA, 0.2% Triton X-100 in PBS) before incubation overnight at 4 C with primary antibodies in blocking solution (rabbit anti-Iba1 antibody [019-19741, Wako; 1:800; RRID: AB_2566825], chicken anti-GFAP antibody [AB5541, Millipore; 1:500; RRID: AB_177521], rabbit anti-NeuN [ab104225, Abcam, 1:400; RRID: AB_10711153], and rabbit anti-TNFα antibody [ab6671, Abcam, 1:100; RRID: AB_305641] or mouse anti-TNFα antibody [ab1793, Abcam, 1:100; RRID: AB_302615]). Sections were washed (2×15 min with PBST [0.05% Tween20] and 1×15 min with PBS at RT) and incubated for 2 hrs at room temperature in secondary antibodies (anti-rabbit, anti-chicken, or anti-mouse IgG-conjugated Alexa Fluorochrome [Invitrogen; 1:400]). Sections were washed and briefly (<30 seconds) incubated with Hoechst 33342 [H1399, Molecular Probes; 1:10,000] in PBS. The stained sections were imaged using an Olympus FluoView FV1000 confocal microscope with Fluoview imaging software (FV10-ASW). Images of the ventral striatum (nucleus accumbens core and shell) were acquired with a 40× or 60× objective and stacks of 25-30 optical sections (1 μm per section) of depth were Z-projected into a single window and analysed using ImageJ software (NIH).
The number of Iba1+ microglia were manually counted from 212×212 μm (60× objectives) or 317×317 μm (40× objectives) images. TNFα intensity was measured using the mean grey value of the entire image while Iba1 intensity measurements were obtained using a thresholded area to highlight only the microglia. Cell body area (μm^2) was measured based on Iba1 staining and using the freehand selection tool. Additional analysis of microglia morphology in saline and cocaine treated mice was done using IMARIS software (Bitplane). […] The following parameters were analyzed for 40 microglia per group: total process length (sum of length of all processes), total process volume, process diameter and number of branch points and terminals. […]
After 40 cycles, the Ct values were determined.

[1] = Sickness behavior in vivo
adult microglial cells = assay: TNFα mRNA in cultured adult mouse microglia; format: cell-based; conditions: cocaine 1 μm, 3 hours
Protocol: (SEQ ID NO: 1) [200 nM]; mouse TNFα reverse, […] (SEQ ID NO: 2) [200 nM]; mouse GAPDH forward, […] (SEQ ID NO: 3) [300 nM]; mouse GAPDH reverse, […] (SEQ ID NO: 4) [300 nM]; rat TNFα forward, […] (SEQ ID NO: 1) [600 nM]; rat TNFα reverse, […] (SEQ ID NO: 5) [600 nM]; rat cyclophilin forward, […] (SEQ ID NO: 6) [500 nM]; rat cyclophilin reverse, […] (SEQ ID NO: 7) [500 nM]. After 40 cycles, the Ct values were determined.
Adult male C57BL/6 mice (8-12 weeks) underwent cardiac perfusion with Hank's Balanced Salt Solution (HBSS) and whole brains were removed. Cortices and striata were dissected, cut in to small pieces and subjected to enzymatic digestion with the Neural Tissue Dissociation Kit (P) (Miltenyi Biotech, US cat no. 130-092-628), as per manufactures instructions. Tissue was homogenised and resuspended in 35% isotonic Percoll, overlayed with HBSS and spun at 400 g for 45 mins for the removal of myelin. Pure populations of microglial cells were obtained through magnetic bead cell sorting using CD11b microbeads (Miltenyi, cat no. 130-093-634). Aliquots from positive and negative bead selected fractions were removed for cell staining to assess cell purity. […] Cells were acquired using a BD FACS Canto II and analyzed using BD FACSDiva software. […]

Molecule | TNF-α levels in vivo, lower than LPS (TNFα; compared with LPS) | TNFα mRNA in the ventral striatum (TNFα; 4 hours) | TNFα mRNA in the ventral striatum (TNFα; 24 hours) | sickness behavior [1] | TNFα mRNA, cultured adult microglia (adult microglial cells)
monophosphoryl lipid A [MPLA] | 10 fold | significantly increases | significantly increases | without inducing sickness behavior | –
COC(=O)[C@H]1[C@@H](OC(=O)c2ccccc2)C[C@@H]2CC[C@H]1N2C [cocaine] | – | – | – | – | 95 % of control
